Source: US8044018B2, “Reagents and methods for smooth muscle therapies” (Arizona Board of Regents, priority 2008, dated 2011)

What was measured:
porcine coronary artery = test: Muscle bath: serotonin pre-contracted rings of porcine coronary artery, endothelium not denuded; settings: cumulative doses added every 10 minutes; n=5; FIG. 4
Description: Rings of porcine coronary artery in which the endothelium was not denuded, were suspended in a muscle bath containing bicarbonate buffer (120 mM NaCl, 4.7 mM KCl, 1.0 mM MgSO4, 1.0 mM NaH2PO4, 10 mM glucose, 1.5 mM CaCl2, and 25 mM […], pH 7.4), equilibrated with 95% O2/5% CO2, at 37° C. at one gram of tension for 2 hours. The muscles were pre-contracted with serotonin ([…] for 10 minutes) and cumulative doses of PTD-pHSP20 (NH2-βAYARRAAARQARAWLRRAS*APLPGLK-COOH, closed circles) (SEQ ID NO:307) or PTD-scrambled-pHSP20 (NH2-βAYARRAAARQARAPRKS*LWALGRPLA-COOH open circles) (SEQ ID NO:308) were added every 10 minutes (FIG. 4). The percentage of relaxation is depicted as a percentage of the maximal serotonin contraction (n=5, *=p<0.05 compared to 0 peptide added). The concentrations of peptide used are depicted on the x axis. Representative rings were treated with peptides (1 mM final concentration) linked to FITC (15 minutes at 37° C.), fixed in 4% paraformaldehyde and examined under fluorescence microscopy (40× magnification).

[1] = system: internal anal sphincter smooth muscles; test: Muscle bath: human internal anal sphincter, tonic sustained contractions; settings: 1 mM final concentration; after washout of sodium nitroprusside
Excerpt: The internal anal sphincter was obtained from a human pathology specimen after an abdominal perineal resection for cancer. The smooth muscles were equilibrated in a muscle bath as described in example 6. The muscles developed tonic sustained contractions when warmed in the bicarbonate buffer. These contractions relaxed with the addition of the guanylate cyclase activator, sodium nitroprusside (SNP). When the sodium nitroprusside was washed out of the bath, the muscles again contracted spontaneously. The muscles were then treated with the PTD-phosphopeptide analogues of HSP20 (NH2-βAYARRAAARQARAWLRRAS*APLPGLK-COOH, 1 mM final concentration) (SEQ ID NO:307).

[2] = system: Intestinal smooth muscle from the tinea coli; test: Muscle bath: pig tinea coli, contractile response to carbachol; settings: peptide in a dextran gel, 1 mM final concentration; then treated with carbachol
Description: Intestinal smooth muscle was obtained from the tinea coli of a pig. These muscles were equilibrated in a muscle bath as described in example 6. The muscles produced transient contractions in response to high extracellular potassium chloride (KCl 110 mM) and in response to carbachol (10^−6 M). The muscles were then treated with a dextran gel containing the PTD-phosphopeptide analogues of HSP20 (NH2-βAYARRAAARQARAWLRRAS*APLPGLK-COOH, 1 mM final concentration) (SEQ ID NO:307) and treated with carbachol.

Tracheal smooth muscles = test: Muscle bath: rabbit tracheal smooth muscle pre-contracted with carbachol; design: species or system New Zealand White rabbits
Description: (§1) Tracheal and corpra cavernosal smooth muscles were obtained from a New Zealand White rabbits after sacrifice. The muscles were equilibrated in a muscle bath as described in example 6. The tracheal muscles were pre-contracted with carbachol and the corpra cavernosal smooth muscles were pre-contracted with norepinephrine. The muscles were then treated with the PTD-phosphopeptide analogues of HSP20 (NH2-βAYARRAAARQARAWLRRAS*APLPGLK-COOH) (SEQ ID NO:307).

[3] = system: corpra cavernosal smooth muscles; test: Muscle bath: rabbit corpra cavernosal smooth muscle pre-contracted with norepinephrine; design: species or system New Zealand White rabbits
Description: as §1

[4] = system: Human saphenous vein smooth muscles; test: Muscle bath: human saphenous vein rings, contraction in response to serotonin; settings: peptide in 7.5% dextran gel; serotonin 1 uM
Description: Human saphenous vein was obtained from remnants that were discarded after vascular bypass operations. Rings of the saphenous vein were equilibrated in a muscle bath as described in experiment 4. The rings were treated with a 7.5% dextran gel alone, or a 7.5% dextran gel containing the phosphopeptide analogues of HSP20 (NH2-βAYARRAAARQARAWLRRAS*APLPGLK-COOH) (SEQ ID NO:307). The rings were then treated with serotonin (1 uM). The rings treated with the 7.5% dextran gel alone contracted in response to serotonin.

[5] = system: Bovine aortic endothelial cells; test: Focal adhesion disassembly, interference reflection microscopy; type: cell-based; settings: HSP20 peptides 10 uM for 30 minutes; serum starved one hour
Description: Bovine aortic endothelial cells were plated on glass coverslips (80K-100K cells) in DMEM plus 10% FBS over night (24 wells plate). The cells were serum starved (no serum) for one hour and incubated in the presence of the peptide analogues of HSP20 [NH2-βAYARRAAARQARAWLRRAS*APLPGLK-COOH-pHSP20 (10 uM) (SEQ ID NO:307) or scrambled analogues of HSP20 [NH2-βAYARRAAARQARAPRKS*LWALGRPLA-COOH-scHSP20 (10 uM)] (SEQ ID NO:308) for 30 minutes. The cells were fixed with 3% glutaraldehyde and the number of focal adhesions was detected with interference reflection microscopy. The Hep I peptide was used as a positive control. This peptide binds to the heparin binding site of thrombospondin in induces focal adhesion disassembly. […] The results are illustrated in FIG. 7.

A10 cells [6] = test: Scratch wound migration assay; type: cell-based; settings: 50 μM; 10% FBS media; 24 hours
Description: Confluent A10 cells were serum starved (0.5% fetal bovine serum, FBS) for 48 hours. A linear wound was made in the smooth muscle cell monolayer using a rubber scraper and the scratched edges were marked using metal pins.

A10 cells [7] = test: Boyden chamber migration assay; type: cell-based
A10 cells [8] = test: Serum-induced proliferation, cell counts; type: cell-based; settings: 50 μM in 10% FBS; 24 hours; serum starved 3 days beforehand
Description: A10 cells were serum starved for 3 days. The cells were then treated with media containing 10% fetal bovine serum, PTD-pHSP20 (NH2-βAYARRAAARQARAWLRRAS*APLPGLK-COOH (SEQ ID NO:307), or PTD-scrambled-pHSP20 (NH2-βAYARRAAARQARAPRKS*LWALGRPLA-COOH (SEQ ID NO:308) (50 μM). After 24 hours cell counts were performed. The number of cells per well in the serum starved plates averaged […] (+/−7.4) compared to 276+/−6.1 in wells containing 10% fetal bovine serum (FBS). In the presence of FBS, the phosphopeptide analogues of HSP20 containing a transduction domain inhibited of smooth muscle proliferation, 149+/−14.6 compared to transduction of the scrambled phosphopeptide analogue of HSP20 (242.3+/−15.3 cells/well). The results of these experiments are illustrated in FIG. 9.

human saphenous vein = test: Intimal hyperplasia in cultured human saphenous vein segments, morphometric intimal area; settings: 14 days; media with 30% fetal bovine serum; versus serum alone or scrambled analogue
Description: Segments of human saphenous vein were cultured in media containing 30% fetal bovine serum.

NH2-βAYARRAAARQARAWLRRAS*APLPGLK-COOH (AYARRAAARQARAWLRRASAPLPGLK; HELM PEPTIDE1{[bAla].Y.A.R.R.A.A.A.R.Q.A.R.A.W.L.R.R.A.[O=C([C@H](COP(=O)(O)O)N[*:1])[*:2]].A.P.L.P.G.L.K}$$$$V2.0; SMILES CC(C)C[C@H](NC(=O)CNC(=O)[C@@H]1CCCN1C(=O)[C@H](CC(C)C)NC(=O)[C@@H]1CCCN1C(=O)[C@H](C)NC(=O)[C@H](COP(=O)(O)O)NC(=O)[C@H](C)NC(=O)[C@H](CCCNC(=N)N)NC(=O)[C@H](CCCNC(=N)N)NC(=O)[C@H](CC(C)C)NC(=O)[C@H](Cc1c[nH]c2ccccc12)NC(=O)[C@H](C)NC(=O)[C@H](CCCNC(=N)N)NC(=O)[C@H](C)NC(=O)[C@H](CCC(N)=O)NC(=O)[C@H](CCCNC(=N)N)NC(=O)[C@H](C)NC(=O)[C@H](C)NC(=O)[C@H](C)NC(=O)[C@H](CCCNC(=N)N)NC(=O)[C@H](CCCNC(=N)N)NC(=O)[C@H](C)NC(=O)[C@H](Cc1ccc(O)cc1)NC(=O)CCN)C(=O)N[C@@H](CCCCN)C(=O)O) [PTD-pHSP20, Phosphopeptide analogue of HSP20 with a protein transduction domain different from TAT]
relaxation as percentage of the maximal serotonin contraction (porcine coronary artery): relax and prevent spasm | relaxation of spontaneous tonic contraction [1]: relaxed and spasm was prevented | contractile response to carbachol [2]: significantly attenuated | relaxation of pre-contracted muscle (Tracheal smooth muscles): relaxed and spasm was prevented | relaxation of pre-contracted muscle [3]: relaxed and spasm was prevented | contraction in response to serotonin [4]: did not contract | focal adhesion disassembly (number of focal adhesions) [5]: led to focal adhesion disassembly | number of cells migrating into a 1 cm^2 scratched area (A10 cells [6]): inhibition of migration | migration of A10 cells (A10 cells [7]): inhibition of migration | number of cells per well (A10 cells [8]): 149+/−14.6 cells/well | intimal area (human saphenous vein): significant reduction in intimal area
